Our source for the melting point values is a melting point compilation (Tetko et al.; mined from patent text by program, amines drawn as free bases though some values may be those of a salt).

Where only a bound is given, the exact number is not on record here.

The melting point is the temperature, or range, at which the solid turns liquid. The compound `COc1ccc(C(NCCC2CCCCC2)c2cccc(Nc3c(N)c(=O)c3=O)c2)cc1` (configuration not stated) displayed a melting point of 168 to 171 °C.

On to `CCOc1cc(-c2cccc(C(=O)NCc3cccc4c3C(=O)N(C3CCC(=O)NC3=O)C4=O)n2)ccc1OC` (configuration not stated), for which the melting point was in the range of 196 to 198 °C.

`CP(=O)(O)C[C@@H](O)CN`: the melting point lay within 221 to 222 °C.

The compound `O=C(CN1CCN(CCSc2nc3cccc(C(F)(F)F)c3o2)CC1)Nc1c(C(F)(F)F)cc(O)cc1C(F)(F)F` registered a melting point of 176 to 177 °C.

In turn, `O=C(CNCc1ccccc1)CP(=O)(O)C(Cl)(Cl)Cl` registered a melting point of 194 to 195 °C.

On to `O=C(Cl)CN1C(=O)C(Cl)=C(Cl)C1=O`, for which the melting point was in the range of 102 to 103 °C.

The compound `CC=CCOc1cc(OC)cc(C(=O)OC)c1` returned a melting point of 140 to 141 °C.

The compound `CC(C)c1ccc(C(Cl)=NO)cc1` registered a melting point of 61 to 63 °C.

`CN(C)c1ccc(CNC(=O)c2ccccc2O)cc1` registered a melting point of 129 to 132 °C.

Compound `COC(=O)C#CCCc1c(C)c(OC)c(C)c(C)c1OC` showed a melting point of 71 to 72 °C.

For the compound `O=C1CC2CCc3ccccc3C2=NN1c1ccccc1O` (configuration not stated), the melting point was 221 to 222 °C.

`CCc1noc(NC(C)=O)c1Cl` gave a melting point of 113 to 114 °C.

`O=C1CCc2c(F)cc(Cl)cc21` showed a melting point of 105 to 107 °C.

`O=C(O)COc1ccc(CCNS(=O)(=O)c2ccccc2)cc1[N+](=O)[O-]` showed a melting point of 135 to 136 °C.

Turning to `Cc1c(C)c2c(c(C)c1O)CCC(C)(CNCCc1ccc(N=C(N)c3cccs3)cc1)O2` (configuration not stated), the melting point was greater than 230 °C.

As for `Cc1c(C)c2c(c(C)c1NCc1ccc(Cl)cc1)C(c1ccc(C(C)C)cc1)C(C)(C)O2` (configuration not stated), the melting point lay in the range of 93 to 94 °C.

Regarding `CCCCCCOc1cc(-c2ccc3cc4c(cc3c2)C(C)(C)CCC4(C)C)ccc1C(=O)O`, the melting point was in the range of 105 to 106 °C.

The compound `CCCCc1nc2cccc(C(=O)OC)c2c(=O)n1Cc1ccc(-c2ccccc2-c2nnn[nH]2)cc1` came in with a melting point of 133 to 143 °C.

The compound `OCCNc1c(Br)cnc2ccccc12` showed a melting point of 163 to 165 °C.

`Cc1ccc(S(=O)(=O)N(C)c2ccc(Cl)cc2S(C)=O)cc1` (configuration not stated) had a melting point of 142 to 144 °C.

In turn, `CCC(=O)Nc1c(C)c(C)c2c(c1C)C(c1ccc(C(C)C)cc1)CO2` (configuration not stated) registered a melting point of 164 to 165 °C.

`O=[N+]([O-])c1ccc2c(c1Br)OCO2` displayed a melting point of 87 to 89 °C.

With `CC(C)(c1ccccc1)c1ccc(O)c(-n2nc3ccccc3n2)c1`, the melting point lay within 119 to 121 °C.

As to `O=C(O)CCCNC(=O)c1ccccc1NC(=O)c1cc([N+](=O)[O-])ccc1O`, the melting point was 239 to 241 °C.

Consider `CSC(=NC#N)N1CCc2nc(NC(=N)N)sc2C1`, for which the melting point fell in the range of 224 to 227 °C.

For the compound `COc1ccc2c(c1)C(=O)C(=Cc1ccccc1)O2`, the melting point stood at 134 °C.

Consider `CCOc1ccc2cc(-c3nc(C(C)(C)C)[nH]c3-c3ccncc3)ccc2c1`, for which the melting point is 258 to 259 °C.

`Cc1cc2c(cc1C)C(=O)C(Nc1ccccc1)=CC2=O` gave a melting point of 208 to 210 °C.

On to `COc1ccc(-c2coc3ccc(-c4nnc(SCc5cccc(C#N)c5)o4)cc23)cc1`, for which the melting point lay in the range of 145 to 146 °C.

`CCCc1nc2c(N)nc(C)c(C)c2n1Cc1cc(-c2ccc(F)cc2)no1`: the melting point lay within 227 to 229 °C.

`O=C(c1ccccc1)c1ccc(Nc2ncnc3ccc(-n4ccnc4)cc23)cc1Cl`: the melting point was 220 to 223 °C.

`CN(CCc1ccncc1)C(=O)CCSc1cc(C(C)(C)C)c(O)c(C(C)(C)C)c1` had a melting point of 129 to 132 °C.

The compound `CC1CCN=C2C(=O)c3cc(Br)ccc3N21` (configuration not stated) registered a melting point of 127 to 129 °C.

As for `O=C(O)c1cc(F)c(F)c(Cl)c1F`, the melting point is 109 to 111 °C.

Consider `COc1cc2c(cc1O)C(Cc1cc(Br)c(OC)cc1[N+](=O)[O-])N(C)CC2` (configuration not stated), for which the melting point was determined as 146 °C.

Consider `CC(C)c1ccc(C2c3ccc(O)cc3OC2(C)C)cc1` (configuration not stated), for which the melting point lay within 114 to 115 °C.

`Cc1cn(-c2cc(NC(=O)c3cccc4cc(Oc5ccnc(N)c5)ccc34)cc(C(F)(F)F)c2)cn1` had a melting point of 236 to 239 °C.

The compound `CCCOc1nc(NC(C)=O)nc2ccc(Cl)nc12` registered a melting point of 191 °C.

As to `N#Cc1c(N2CCCCC2)cc(-c2ccco2)c2c1Cc1ccccc1-2`, the melting point lay within 160 to 162 °C.

Compound `Cc1c(NC(=O)c2ccc(OC[C@@H]3CCCO3)cc2)ccc2cc(CNCC(C)(C)C)n(C)c12` registered a melting point of 201 °C.

Turning to `Nc1cc2c(Nc3ccc(F)c(C(F)(F)F)c3)ncnc2cn1`, the melting point lay in the range of 252 to 255 °C.

`CCCCCC(=O)N(CO)C1N=C(c2ccccc2)c2ccccc2N(C)C1=O` (single isomer, unassigned; (+)) gave a melting point of 154 to 156 °C.

Compound `CCCc1c2nc(C(=O)OCC)ccc2cc2c(=O)cc(C(=O)OCC)oc12` displayed a melting point of 168 to 171 °C.

`O=C1CC[C@@H](c2ccccc2)[C@H](c2ccccc2)N1CO` (relative stereo) returned a melting point of 127 to 129 °C.

For the compound `CC(=O)NC[C@H]1CN(c2ccc(N3CCC(n4nnnc4N)CC3)c(F)c2)C(=O)O1`, the melting point fell in the range of 174 to 176 °C.

`Oc1c(Cl)cc(Cl)cc1CNc1cnsn1` registered a melting point of 131 to 132 °C.

On to `CCCNC(=O)c1cccc(-c2nc(=O)c3ccccc3s2)n1`, for which the melting point lay in the range of 180 to 181 °C.

The compound `CNC(=O)N1CCC(C(Nc2ccc(F)cc2)c2ccc(F)cc2)CC1` (configuration not stated) registered a melting point of 86 to 90 °C.

`O=C(O)C(=O)c1ccc(OCCCCc2ccncc2)cc1`: the melting point is 198 to 199 °C.

The compound `O=C(O)c1sc(-c2cccnc2)nc1Cl` showed a melting point of 238 to 251 °C.

The compound `Cc1cc2c(cc1O)C(C)(C)CC1(CC(C)(C)c3cc(OCCCn4nc(CO)cc4C)c(C)cc3O1)O2` (configuration not stated) showed a melting point of 217 to 219 °C.

With `CNC(=O)CN1CCc2cc(Nc3ncc(Cl)c(Nc4ccccc4C(=O)NC)n3)c(OC)cc2CC1`, the melting point lay within 200 to 216 °C.

For `COc1cc(Oc2ccc(S(C)(=O)=O)nc2)cc2cc(C3=NCC(CC(=O)NCC(C)(C)O)S3)[nH]c12` (configuration not stated), the melting point was in the range of 173 to 174 °C.

`Nc1ccc2c(c1)CN(CCC1CCCCN1S(=O)(=O)c1cccc3ccccc13)CC2` (configuration not stated) returned a melting point of 212 to 218 °C.

Turning to `Cc1cc(C(=O)Nc2cccc(Sc3ccc4nc(NC(=O)C5CC5)cn4n3)c2)n(C)n1`, the melting point is 251 °C.

Take `COc1nc(C)cnc1NS(=O)(=O)c1ccccc1-c1ccc(C)cc1`: the melting point lay within 184 to 185 °C.

Compound `Cc1noc(NS(=O)(=O)c2ccccc2-c2ccc(-c3ncco3)cc2CC(=O)N(C)C)c1C` had a melting point of 89 to 96 °C.

In turn, `COC(=O)Cc1ccc(OCCNC(=O)C2Cc3ccccc3N2S(=O)(=O)c2ccc(-c3cc(F)ccc3Cl)cc2)cc1` (configuration not stated) came in with a melting point of 52 to 56 °C.

For the compound `CC(=O)OCC1CCc2cc3ccccc3n2CC1` (configuration not stated), the melting point is 77 to 79 °C.

The compound `CN(C)C=C(C#N)C=NN(C)C` gave a melting point of 130 to 134 °C.

Take `CCS(=O)(=O)N(C)C1c2cc(F)c(Cl)cc2OC(C)(C)C1OC(C)=O` (configuration not stated): the melting point fell in the range of 143 to 144 °C.

Take `Cc1noc(NC(=O)N2CCN(c3nccc(-c4cc(F)cc(F)c4)n3)CC2)c1C`: the melting point was 241 to 242 °C.

Take `FC(F)(F)c1ccc(Oc2ccc3nonc3c2)c(Cl)c1`: the melting point fell in the range of 65 to 66 °C.

As for `CCCCCCc1ccc(C=CC(=O)c2ccc(OCC=C(C)C)cc2OCC(=O)OCC)cc1`, the melting point lay in the range of 56 to 57 °C.

`N#Cc1ccc(C=NO)c(F)c1` registered a melting point of 179 to 182 °C.

`CCCCn1c(=O)c2cc(C(=O)O)cn2c2cc(Cl)c(Cl)cc21` returned a melting point of 281 to 283 °C.

Compound `CC1(c2ccc([N+](=O)[O-])cc2)Cc2cc(O)c(Cl)c(Cl)c2C1=O` (configuration not stated) came in with a melting point of 268 to 270 °C.

`CC(Oc1cc(-c2nn(C)c(OC(F)F)c2Cl)c(Cl)cc1Cl)C(=O)N(C)C` (configuration not stated) registered a melting point of 149 °C.

`CC(=C=CC(C)(C)c1ccc(Cl)cc1)C(=O)O` gave a melting point of 106 to 108 °C.

Compound `CNC(=O)N1C[C@@H](Oc2cccc(C(F)(F)F)c2)[C@@H]1C` (relative stereo) gave a melting point of 89 to 91 °C.

Compound `CC(C)c1ccc(O[C@@H](Cc2ccc(O)cc2)C(=O)N2C(=O)OC[C@@H]2Cc2ccccc2)cc1` had a melting point of 142 to 143 °C.

As for `Cc1ccc(S(=O)(=O)n2ccc3c(CBr)cccc32)cc1`, the melting point was 113 to 134 °C.

As for `O=C(O)c1ccc(OCCNC(=O)C2Cc3ccccc3N2S(=O)(=O)c2ccc(-c3ccc(F)cc3Cl)cc2)cc1F` (configuration not stated), the melting point lay within 98 to 102 °C.

In the case of `c1ccc(C(OC2CCN(CCOc3ccc4nncn4n3)CC2)c2ccccc2)cc1`, the melting point was 149 to 150 °C.

`O=C(NCC1Cc2cccc(-c3ccc(F)cc3F)c2O1)OCc1ccccc1` (configuration not stated) came in with a melting point of 78 to 80 °C.

For `CSC1=Nc2ccccc2Cn2nnnc21`, the melting point fell in the range of 105 to 108 °C.

With `CC(C)(C)OC(=O)/C(C#N)=C/c1cccc2ccccc12`, the melting point is 51 to 53 °C.

Consider `C(=C1CCc2cccnc21)c1ccccc1`, for which the melting point fell in the range of 74 to 75 °C.

In turn, `O=C(O)c1ccc(OCC2CCCCC2)cc1` came in with a melting point of 209 to 210 °C.

`N#Cc1cnc2c(c1Nc1cccc(Br)c1)C=C1N=CN=C1C2` showed a melting point of 286 to 288 °C.

`CCCCCn1c(C)cc(=O)c(C(=O)Nc2ccccc2)c1-c1ccccc1` returned a melting point of 164 to 166 °C.

The compound `COc1ccc(-c2ccc(S(=O)(=O)CC(C)N(O)C=O)cc2)cc1` (configuration not stated) gave a melting point of 197 to 198 °C.

`CCCCN(C)C(=O)OCCCc1ccc(OCCOC)cc1Oc1ncc(C(F)(F)F)cc1Cl` came in with a melting point of 54 to 55.2 °C.

`Cc1cc(CCCOc2c(C)cc(N3COC(CO)=N3)cc2C)on1` had a melting point of 116 to 117 °C.

On to `O=C1c2c(O)cccc2C(O)(c2cccc(C(F)(F)F)c2)c2cccc(O)c21`, for which the melting point was 222 to 223 °C.

In turn, `CCCOc1cc(COc2c(CC)cccc2CC(=O)O)n(Cc2ccc3ccccc3n2)n1` displayed a melting point of 110 to 111 °C.

`C[C@@H](NC(=O)c1nsc(-c2ccc(Cl)cc2)n1)[C@](O)(Cn1cncn1)c1ccc(F)cc1F`: the melting point was 186 to 187 °C.
